{
  "source": "patent EP0878193A1",
  "about": "“REMEDIES FOR HERPESVIRUS INFECTION CAUSED BY HERPESVIRUS AND PREVENTIVES FOR RECURRENCE OF THE INFECTION BOTH CONTAINING TRITERPENE DERIVATIVES AS THE ACTIVE INGREDIENT” (Showa Shell Sekiyu K.K., priority 1996, dated 1997)",
  "key": {"[1]": {"system": "HSV-1", "test": "plaque formation test (antiviral activity, CPE as index) on Vero cells", "type": "cell-based, herpes simplex virus type 1 (strain 7401 H)", "conditions": "Human alphaherpesvirus 1, Vero, 50% plaque formation inhibition concentration; HSV-1 on Vero cells; three experiments; read-out: EC50 (µg/mℓ) (average ± standard deviation)", "text": "(§1) In order to examine antiviral activity, herpes simplex virus type 1 (strain 7401 H) (referred sometimes to as \"HSV-1\" hereinafter), TK deficiency herpes simplex virus type 1 (strain B 2006) (referred sometimes to as \"TK^-\" hereinafter), phosphono acetic acid (referred to as \"PAA\" hereinafter) resistant herpes simplex virus type 1 (PAA resistant strain derived from 7401 H) (referred sometimes to as \"AP^r1\" hereinafter) and herpes simplex virus type 2 (strain Ito 1262) (referred sometimes to as \"HSV-2\" hereinafter) were used as viruses. […]\n(§2) That is, the above-described virus solution was diluted to a concentration of 100 plaques/0.2 mℓ, the thus diluted virus solution (0.2 mℓ) was inoculated into Vero cells which have been cultured into monolayer in a plastic dish of 60 mm in diameter, and the mixture was incubated at 37°C for 1 hour to effect adsorption of viruses to the Vero cells. After the adsorption, 2% fetal bovine serum-added MEM medium (5 mℓ) containing each drug solution to be measured having varied drug concentration and 0.8% methyl cellulose was overlaid on the just described virus-adsorbed monolayer Vero cells which were subsequently cultured at 37°C for 2 to 5 days to effect plaque formation. […] The number of plaques was counted under a stereoscopic microscope. […]"}, "[2]": {"system": "HSV-1", "test": "amount of virus in skin and brain of mice infected with HSV-1 (plaque assay of tissue homogenates)", "type": "in vivo", "conditions": "for Skin/brain (ratio): ratio of the percentages of skin and brain", "method": "Next, effects of 3-oxo-olean-18-en-28-oic acid (moronic acid) against a virus in the animal body were examined by infecting skin cell tissues of mice with the viral strain HSV-1 and measuring the amount of the virus particles remained in the affected part of the skin and those migrated from the skin into intracerebral nerve cells 2, 3, 4 and 6 days after the infection, when a control (water only) or a varied amount of 3-oxo-olean-18-en-28-oic acid (moronic acid) was administered to the mice. In each of the experiments 1 and 2, three mice were used in one group and the average number of virus particles obtained from each mouse was used as the amount of virus. The amount of virus was measured by cutting off an area of 1 cm^2 around the affected part in the case of the skin or using the entire brain portion in the case of the brain. Each of the tissue samples was mixed with 2 mℓ of physiological saline and homogenated, the supernatant fluid obtained therefrom was used as a virus test solution to carry out a plaque assay (plaque measuring method) using cultured Vero cells, and the number of plaques thus counted was used as the amount of virus. The skin/brain ratio is a value calculated as the ratio of respective percentages obtained from the skin and the brain.\nWith regard to the numeral in ( ) such as (100%), (65.4%) or the like shown in the item of the amount of virus, the amount of virus in the control was defined as 100% and shown as (100%), the ratio of residual virus particles when 10 mg/kg of moronic acid was administered was 65.4% so that it was shown as (65.4%), and other numerals in ( ) under respective data were shown in the same manner."}, "[3]": {"system": "AP^r1", "test": "plaque formation test (antiviral activity, CPE as index) on Vero cells", "type": "cell-based", "conditions": "Human alphaherpesvirus 1, Vero, read-out: EC50 (µg/mℓ) (average ± standard deviation), 50% plaque formation inhibition concentration, three experiments", "text": "as §1, §2"}, "[4]": {"system": "AP^r1", "test": "viral DNA synthesis, slot-blot hybridization with radiation-labeled probe in Vero cells", "type": "cell-based", "conditions": "0, 5, 10 or 20 µg/mℓ, even at 20 µg/mℓ, Fig. 2", "method": "Finally, in order to examine effects of moronic acid on the viral synthesis ability, the amount of virus particles in cultured cells was measured by the slot-blot hybridization described in J. Traditional Med., 12, 187 - 194 (1995). Using a radiation-labeled probe, viral DNA synthesis ability of herpesvirus strains HSV-1 and AP^r1 was measured just after adsorption of the viruses to animal cells (Vero cells) or when concentration of 3-oxo-olean-18-en-28-oic acid (moronic acid) was changed (0, 5, 10 or 20 µg/mℓ), with the results shown as a chart in Fig. 2 (photograph).\nIn Fig. 2, rough amounts of each herpesvirus are shown by the strength of black parts. For the sake of comparison, DNA copy number of a virus TK^- is shown on the right-side column as a reference strength."}, "[5]": {"conditions": "Exp. 1, 2 days after infection, 10 mg/kg"}, "[6]": {"conditions": "Exp. 1, 4 days after infection, 1 mg/kg"}, "[7]": {"conditions": "Exp. 1, 4 days after infection, 10 mg/kg"}, "[8]": {"conditions": "Exp. 1, 6 days after infection, 1 mg/kg"}, "[9]": {"conditions": "Exp. 1, 6 days after infection, 10 mg/kg"}, "[10]": {"conditions": "Exp. 2, 3 days after infection, 1 mg/kg"}, "[11]": {"conditions": "Exp. 2, 3 days after infection, 5 mg/kg"}, "[12]": {"conditions": "Exp. 2, 6 days after infection, 1 mg/kg"}, "[13]": {"conditions": "Exp. 2, 6 days after infection, 5 mg/kg"}},
  "data": [
    {"smiles": "CC1(C)C=C2[C@H]3CC[C@@H]4[C@@]5(C)CCC(=O)C(C)(C)[C@@H]5CC[C@@]4(C)[C@]3(C)CC[C@@]2(C(=O)O)CC1", "note": "[Moronic acid, 3-oxo-olean-18-en-28-oic acid]", "values": [
      {"measurement": "EC50", "setting": "[1]", "result": "3.9 ± 1.1", "unit": "µg/mL"},
      {"measurement": "Amount of virus (average ± standard deviation, PFU/organ) Skin", "setting": "[2]; [5]", "result": "4.9 ± 0.0 (log10 PFU)/cm^2"},
      {"measurement": "Amount of virus Skin, relative to control defined as 100%", "setting": "[2]; [5]", "result": 91.2, "unit": "%"},
      {"measurement": "Amount of virus (average ± standard deviation, PFU/organ) Brain", "setting": "[2]; [6]", "result": "< 2.4 ± 0.0 (log10 PFU)/total"},
      {"measurement": "Amount of virus (average ± standard deviation, PFU/organ) Skin", "setting": "[2]; [6]", "result": "6.1 ± 0.4 (log10 PFU)/cm^2"},
      {"measurement": "Amount of virus Brain, relative to control defined as 100%", "setting": "[2]; [6]", "result": "< 83.9", "unit": "%"},
      {"measurement": "Amount of virus Skin, relative to control defined as 100%", "setting": "[2]; [6]", "result": 93.5, "unit": "%"},
      {"measurement": "Skin/brain (ratio)", "setting": "[2]; [6]", "result": ">1.12"},
      {"measurement": "Amount of virus (average ± standard deviation, PFU/organ) Brain", "setting": "[2]; [7]", "result": "< 2.40 ± 0.0 (log10 PFU)/total"},
      {"measurement": "Amount of virus (average ± standard deviation, PFU/organ) Skin", "setting": "[2]; [7]", "result": "6.3 ± 0.3 (log10 PFU)/cm^2"},
      {"measurement": "Amount of virus Brain, relative to control defined as 100%", "setting": "[2]; [7]", "result": "< 83.9", "unit": "%"},
      {"measurement": "Amount of virus Skin, relative to control defined as 100%", "setting": "[2]; [7]", "result": 96.3, "unit": "%"},
      {"measurement": "Skin/brain (ratio)", "setting": "[2]; [7]", "result": ">1.15"},
      {"measurement": "Amount of virus (average ± standard deviation, PFU/organ) Brain", "setting": "[2]; [8]", "result": "3.5 ± 0.4 (log10 PFU)/total"},
      {"measurement": "Amount of virus (average ± standard deviation, PFU/organ) Skin", "setting": "[2]; [8]", "result": "6.1 ± 0.2 (log10 PFU)/cm^2"},
      {"measurement": "Amount of virus Brain, relative to control defined as 100%", "setting": "[2]; [8]", "result": 85.6, "unit": "%"},
      {"measurement": "Amount of virus Skin, relative to control defined as 100%", "setting": "[2]; [8]", "result": 95.3, "unit": "%"},
      {"measurement": "Skin/brain (ratio)", "setting": "[2]; [8]", "result": 1.12},
      {"measurement": "Amount of virus (average ± standard deviation, PFU/organ) Brain", "setting": "[2]; [9]", "result": "2.3 ± 0.3 (log10 PFU)/total"},
      {"measurement": "Amount of virus (average ± standard deviation, PFU/organ) Skin", "setting": "[2]; [9]", "result": "6.0 ± 0.1 (log10 PFU)/cm^2"},
      {"measurement": "Amount of virus Brain, relative to control defined as 100%", "setting": "[2]; [9]", "result": 57.0, "unit": "%"},
      {"measurement": "Amount of virus Skin, relative to control defined as 100%", "setting": "[2]; [9]", "result": 94.2, "unit": "%"},
      {"measurement": "Skin/brain (ratio)", "setting": "[2]; [9]", "result": 1.674},
      {"measurement": "Amount of virus (average ± standard deviation, PFU/organ) Skin", "setting": "[2]; [10]", "result": "5.5 ± 0.4 (log10 PFU)/cm^2"},
      {"measurement": "Amount of virus Skin, relative to control defined as 100%", "setting": "[2]; [10]", "result": 98.2, "unit": "%"},
      {"measurement": "Amount of virus (average ± standard deviation, PFU/organ) Skin", "setting": "[2]; [11]", "result": "5.1 ± 0.4 (log10 PFU)/cm^2"},
      {"measurement": "Amount of virus Skin, relative to control defined as 100%", "setting": "[2]; [11]", "result": 91.5, "unit": "%"},
      {"measurement": "Amount of virus (average ± standard deviation, PFU/organ) Brain", "setting": "[2]; [12]", "result": "3.0 ± 0.6 (log10 PFU)/total"},
      {"measurement": "Amount of virus (average ± standard deviation, PFU/organ) Skin", "setting": "[2]; [12]", "result": "4.8 ± 0.7 (log10 PFU)/cm^2"},
      {"measurement": "Amount of virus Brain, relative to control defined as 100%", "setting": "[2]; [12]", "result": 80.7, "unit": "%"},
      {"measurement": "Amount of virus Skin, relative to control defined as 100%", "setting": "[2]; [12]", "result": 93.9, "unit": "%"},
      {"measurement": "Skin/brain (ratio)", "setting": "[2]; [12]", "result": 1.16},
      {"measurement": "Amount of virus (average ± standard deviation, PFU/organ) Brain", "setting": "[2]; [13]", "result": "2.7 ± 0.3 (log10 PFU)/total"},
      {"measurement": "Amount of virus (average ± standard deviation, PFU/organ) Skin", "setting": "[2]; [13]", "result": "5.6 ± 0.2 (log10 PFU)/cm^2"},
      {"measurement": "Amount of virus Brain, relative to control defined as 100%", "setting": "[2]; [13]", "result": 72.2, "unit": "%"},
      {"measurement": "Amount of virus Skin, relative to control defined as 100%", "setting": "[2]; [13]", "result": 109.0, "unit": "%"},
      {"measurement": "Skin/brain (ratio)", "setting": "[2]; [13]", "result": 31.9},
      {"measurement": "EC50", "setting": "[3]", "result": "1.6 ± 0.4", "unit": "µg/mL"},
      {"measurement": "effect to inhibit virus DNA synthesis", "setting": "[4]", "result": "not found"}
    ]}
  ]
}
